Results as given in US8183248B2, “Substituted pyrrolo[2,3-d]pyrimidines and compositions as protein kinase inhibitors” (IRM LLC, priority 2005, dated 2012).

Assays:
TrkB(h) = target: T1, TrkB(h) (Homo sapiens, UniProt Q16620); assay: Upstate KinaseProfiler radio-enzymatic filter binding assay; assay type: biochemical; conditions: read-out: percentage inhibition TrkB(h)
T1 construct: purchased Upstate
Protocol: (§1) Compounds of the invention are assessed for their ability to inhibit individual members of the kinase panel. The compounds are tested in duplicates at a final concentration of 10 μM following this generic protocol. Note that the kinase buffer composition and the substrates vary for the different kinases included in the “Upstate KinaseProfiler™” panel. Kinase buffer (2.5 μL, 10×—containing MnCl2 when required), active kinase (0.001-0.01 Units; 2.5 μL), specific or Poly(Glu4-Tyr) peptide (5-500 μM or 0.01 mg/ml) in kinase buffer and kinase buffer (50 μM; 5 μL) are mixed in an eppendorf on ice. A Mg/ATP mix (10 μL; 67.5 (or 33.75) mM MgCl2, 450 (or 225) μM ATP and 1 μCi/μl [γ-^32P]-ATP (3000 Ci/mmol)) is added and the reaction is incubated at about 30° C. for about 10 minutes. The reaction mixture is spotted (20 μL) onto a 2 cm×2 cm P81 (phosphocellulose, for positively charged peptide substrates) or Whatman No. 1 (for Poly (Glu4-Tyr) peptide substrate) paper square. The assay squares are washed 4 times, for 5 minutes each, with 0.75% phosphoric acid and washed once with acetone for 5 minutes. The assay squares are transferred to a scintillation vial, 5 ml scintillation cocktail are added and ^32P incorporation (cpm) to the peptide substrate is quantified with a Beckman scintillation counter. Percentage inhibition is calculated for each reaction.

CSK(h) = target: T2, CSK(h) (Homo sapiens, UniProt P41240); assay: as above; assay type: biochemical; conditions: read-out: percentage inhibition CSK(h)
T2 construct: purchased Upstate
Protocol: as §1

Flt3(h) = target: T3, Flt3(h) (Homo sapiens, UniProt P36888); assay: as above; assay type: biochemical; conditions: read-out: percentage inhibition Flt3(h)
T3 construct: purchased Upstate
Protocol: as §1

PDGFRα(h) = target: T4, PDGFRα(h) (Homo sapiens, UniProt P16234); assay: as above; assay type: biochemical; conditions: read-out: percentage inhibition PDGFRα(h)
T4 construct: purchased Upstate
Protocol: as §1

SAPK4(h) = target: T5, SAPK4(h) (Homo sapiens, UniProt O15264); assay: as above; assay type: biochemical; conditions: read-out: percentage inhibition SAPK4(h)
T5 construct: purchased Upstate
Protocol: as §1

Lck(h) = target: T6, Lck(h) (Homo sapiens, UniProt P06239); assay: as above; assay type: biochemical; conditions: read-out: percentage inhibition Lck(h)
T6 construct: purchased Upstate
Protocol: as §1

p70S6K(h) = target: T7, p70S6K(h) (Homo sapiens, UniProt P23443); assay: as above; assay type: biochemical; conditions: read-out: percentage inhibition p70S6K(h)
T7 construct: purchased Upstate
Protocol: as §1

Rsk1(h) = target: T8, Rsk1(h) (Homo sapiens, UniProt Q15418); assay: as above; assay type: biochemical; conditions: read-out: percentage inhibition Rsk1(h)
T8 construct: purchased Upstate
Protocol: as §1

Abl(T315L) = target: T9, Abl(T315L) (Homo sapiens, UniProt P00519, T315I); assay: as above; assay type: biochemical; conditions: read-out: percentage inhibition Abl(T315L)
T9 construct: purchased Upstate
Protocol: as §1

PKA(h) = target: T10, PKA(h) (Homo sapiens, UniProt P17612); assay: as above; assay type: biochemical; conditions: read-out: percentage inhibition PKA(h)
T10 construct: purchased Upstate
Protocol: as §1

SAPK2p(h) = target: T11, SAPK2p(h) (Homo sapiens, UniProt Q15759); assay: as above; assay type: biochemical; conditions: read-out: percentage inhibition SAPK2p(h)
T11 construct: purchased Upstate
Protocol: as §1

ROCK-II(h) = target: T12, ROCK-II(h) (Homo sapiens, UniProt O75116); assay: as above; assay type: biochemical; conditions: read-out: percentage inhibition ROCK-II(h)
T12 construct: purchased Upstate
Protocol: as §1

B-RAF = B-RAF (Homo sapiens, UniProt P15056); assay: b-Raf Enzymatic Assay; assay type: biochemical
Protocol: Compounds of the invention are tested for their ability to inhibit the activity of b-Raf. The assay is carried out in 384-well MaxiSorp plates (NUNC) with black walls and clear bottom. The substrate, IκBα is diluted in DPBS (1:750) and 15 μl is added to each well. The plates are incubated at 4° C. overnight and washed 3 times with TBST (25 mM Tris, pH 8.0, 150 mM NaCl and 0.05% Tween-20) using the EMBLA plate washer. Plates are blocked by Superblock (15 μl/well) for 3 hours at room temperature, washed 3 times with TBST and pat-dried. Assay buffer containing 20 μM ATP (10 μl) is added to each well followed by 100 nl or 500 nl of compound. B-Raf is diluted in the assay buffer (1 μl into 25 μl) and 10 μl of diluted b-Raf is added to each well (0.4 μg/well). The plates are incubated at room temperature for 2.5 hours. The kinase reaction is stopped by washing the plates 6 times with TBST. Phosph-IκBα (Ser32/36) antibody is diluted in Superblock (1:10,000) and 15 μl is added to each well. The plates are incubated at 4° C. overnight and washed 6 times with TBST. AP-conjugated goat-anti-mouse IgG is diluted in Superblock (1:1,500) and 15 μl is added to each well. Plates are incubated at room temperature for 1 hour and washed 6 times with TBST. […] Plates are read on Acquest or Analyst GT using a Fluorescence Intensity Program (Excitation 455 nm, Emission 580 nm).

[1] = target: T13, G250E Bcr-abl (Ba/F3 cells) (Homo sapiens, UniProt P00519, G250E); assay: Proliferation of Ba/F3 cells expressing G250E Bcr-abl; assay type: cell-based
T13 construct: expressed in transfected cells; host or cells: Ba/F3 (murine pro-B cells); the other entry of the earlier key: BCR (P11274, Breakpoint cluster region protein)
Protocol: 32D-p210 cells are plated into 96 well TC plates at a density of 15,000 cells per well. 50 μL of two fold serial dilutions of the test compound (Cmax is 40 μM) are added to each well (STI571 is included as a positive control). After incubating the cells for 48 hours at 37° C., 5% CO2, 15 μL of MTT (Promega) is added to each well and the cells are incubated for an additional 5 hours. The optical density at 570 nm is quantified spectrophotometrically and IC50 values, the concentration of compound required for 50% inhibition, determined from a dose response curve.
Compounds of the invention are tested for their antiproliferative effect on Ba/F3 cells expressing either wild type or the mutant forms of BCR-Abl (G250E, E255V, T315I, F317L, M351T) that confers resistance or diminished sensitivity to STI571. The antiproliferative effect of these compounds on the mutant-BCR-Abl expressing cells and on the non transformed cells were tested at 10, 3.3, 1.1 and 0.37 μM as described above (in media lacking IL3). The IC50 values of the compounds lacking toxicity on the untransformed cells were determined from the dose response curves obtained as describe above.

T4 sequence (P16234 24-1089): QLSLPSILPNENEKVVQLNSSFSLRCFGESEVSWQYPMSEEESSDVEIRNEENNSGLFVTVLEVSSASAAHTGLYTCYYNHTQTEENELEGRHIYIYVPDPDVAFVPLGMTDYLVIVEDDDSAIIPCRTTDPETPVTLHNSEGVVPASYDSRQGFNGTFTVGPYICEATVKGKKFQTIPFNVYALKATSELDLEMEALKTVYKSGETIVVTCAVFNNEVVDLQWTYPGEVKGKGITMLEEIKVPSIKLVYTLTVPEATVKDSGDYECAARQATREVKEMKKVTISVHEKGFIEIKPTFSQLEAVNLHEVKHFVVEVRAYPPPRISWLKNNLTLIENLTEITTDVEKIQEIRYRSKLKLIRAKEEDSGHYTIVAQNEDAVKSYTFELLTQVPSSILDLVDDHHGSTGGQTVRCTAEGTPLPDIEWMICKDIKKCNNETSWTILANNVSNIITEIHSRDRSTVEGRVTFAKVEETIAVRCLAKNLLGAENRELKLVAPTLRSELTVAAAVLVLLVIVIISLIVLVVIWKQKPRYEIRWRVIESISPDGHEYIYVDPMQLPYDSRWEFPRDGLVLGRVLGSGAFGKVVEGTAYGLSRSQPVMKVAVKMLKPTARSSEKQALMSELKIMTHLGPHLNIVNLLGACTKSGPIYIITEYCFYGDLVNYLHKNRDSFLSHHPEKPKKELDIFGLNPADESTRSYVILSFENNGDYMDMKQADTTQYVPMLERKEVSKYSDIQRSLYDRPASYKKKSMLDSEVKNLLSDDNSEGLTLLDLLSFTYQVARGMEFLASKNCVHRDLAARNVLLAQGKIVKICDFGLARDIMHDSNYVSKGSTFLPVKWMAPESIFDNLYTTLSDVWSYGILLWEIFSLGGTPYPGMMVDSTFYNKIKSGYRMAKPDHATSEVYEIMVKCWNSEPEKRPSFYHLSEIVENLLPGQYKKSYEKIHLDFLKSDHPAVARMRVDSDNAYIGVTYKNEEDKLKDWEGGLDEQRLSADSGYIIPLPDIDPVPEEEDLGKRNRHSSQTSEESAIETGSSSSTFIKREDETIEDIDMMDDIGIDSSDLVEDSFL
T8 sequence (Q15418 whole entry): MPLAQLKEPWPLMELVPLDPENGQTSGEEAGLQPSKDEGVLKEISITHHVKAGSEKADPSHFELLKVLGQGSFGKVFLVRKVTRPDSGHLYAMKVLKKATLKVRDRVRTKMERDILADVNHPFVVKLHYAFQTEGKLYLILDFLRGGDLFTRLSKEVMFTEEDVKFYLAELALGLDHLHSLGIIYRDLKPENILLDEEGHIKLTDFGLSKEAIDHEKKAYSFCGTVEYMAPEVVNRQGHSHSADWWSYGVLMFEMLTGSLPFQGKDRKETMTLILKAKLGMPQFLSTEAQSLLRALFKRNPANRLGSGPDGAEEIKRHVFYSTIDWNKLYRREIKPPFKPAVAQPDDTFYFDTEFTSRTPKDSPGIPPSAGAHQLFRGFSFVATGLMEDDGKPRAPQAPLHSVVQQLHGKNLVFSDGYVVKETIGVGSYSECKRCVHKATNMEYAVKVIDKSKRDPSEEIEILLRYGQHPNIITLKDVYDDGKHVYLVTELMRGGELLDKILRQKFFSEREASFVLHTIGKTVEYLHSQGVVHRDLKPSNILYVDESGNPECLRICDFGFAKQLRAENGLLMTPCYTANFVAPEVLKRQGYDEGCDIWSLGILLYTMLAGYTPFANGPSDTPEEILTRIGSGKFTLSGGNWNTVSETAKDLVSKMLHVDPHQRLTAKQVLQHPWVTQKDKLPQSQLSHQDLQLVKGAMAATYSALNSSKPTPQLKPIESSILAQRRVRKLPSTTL
T1 sequence (Q16620 32-822): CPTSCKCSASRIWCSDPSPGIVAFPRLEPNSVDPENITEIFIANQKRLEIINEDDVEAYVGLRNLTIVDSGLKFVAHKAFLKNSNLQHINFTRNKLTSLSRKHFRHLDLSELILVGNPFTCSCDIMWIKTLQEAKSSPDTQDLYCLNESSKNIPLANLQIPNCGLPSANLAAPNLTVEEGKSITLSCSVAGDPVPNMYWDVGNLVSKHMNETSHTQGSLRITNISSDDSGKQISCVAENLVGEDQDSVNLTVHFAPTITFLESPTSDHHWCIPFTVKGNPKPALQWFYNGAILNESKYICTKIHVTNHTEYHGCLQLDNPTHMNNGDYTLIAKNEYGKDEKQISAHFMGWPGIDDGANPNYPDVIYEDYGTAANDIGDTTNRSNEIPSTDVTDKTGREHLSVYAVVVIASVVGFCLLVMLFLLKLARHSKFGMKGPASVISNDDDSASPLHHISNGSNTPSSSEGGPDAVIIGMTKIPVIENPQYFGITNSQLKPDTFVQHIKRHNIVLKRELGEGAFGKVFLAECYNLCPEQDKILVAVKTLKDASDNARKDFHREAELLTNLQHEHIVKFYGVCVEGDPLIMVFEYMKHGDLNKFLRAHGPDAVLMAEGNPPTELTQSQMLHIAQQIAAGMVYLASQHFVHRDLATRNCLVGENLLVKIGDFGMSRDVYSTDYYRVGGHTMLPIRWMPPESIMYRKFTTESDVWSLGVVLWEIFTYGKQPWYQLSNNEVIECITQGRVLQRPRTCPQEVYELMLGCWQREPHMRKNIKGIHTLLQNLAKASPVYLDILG
T11 sequence (Q15759 whole entry): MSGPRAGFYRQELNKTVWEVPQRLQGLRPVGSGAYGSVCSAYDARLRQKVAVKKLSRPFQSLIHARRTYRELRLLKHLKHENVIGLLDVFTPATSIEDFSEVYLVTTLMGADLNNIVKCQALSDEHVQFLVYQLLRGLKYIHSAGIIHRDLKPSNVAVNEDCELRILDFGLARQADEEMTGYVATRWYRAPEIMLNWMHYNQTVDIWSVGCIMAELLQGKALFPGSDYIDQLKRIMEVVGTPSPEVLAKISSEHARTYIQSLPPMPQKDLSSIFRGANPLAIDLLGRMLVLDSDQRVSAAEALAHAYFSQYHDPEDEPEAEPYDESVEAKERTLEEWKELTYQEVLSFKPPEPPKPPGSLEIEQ
Sequence of B-RAF (P15056 whole entry): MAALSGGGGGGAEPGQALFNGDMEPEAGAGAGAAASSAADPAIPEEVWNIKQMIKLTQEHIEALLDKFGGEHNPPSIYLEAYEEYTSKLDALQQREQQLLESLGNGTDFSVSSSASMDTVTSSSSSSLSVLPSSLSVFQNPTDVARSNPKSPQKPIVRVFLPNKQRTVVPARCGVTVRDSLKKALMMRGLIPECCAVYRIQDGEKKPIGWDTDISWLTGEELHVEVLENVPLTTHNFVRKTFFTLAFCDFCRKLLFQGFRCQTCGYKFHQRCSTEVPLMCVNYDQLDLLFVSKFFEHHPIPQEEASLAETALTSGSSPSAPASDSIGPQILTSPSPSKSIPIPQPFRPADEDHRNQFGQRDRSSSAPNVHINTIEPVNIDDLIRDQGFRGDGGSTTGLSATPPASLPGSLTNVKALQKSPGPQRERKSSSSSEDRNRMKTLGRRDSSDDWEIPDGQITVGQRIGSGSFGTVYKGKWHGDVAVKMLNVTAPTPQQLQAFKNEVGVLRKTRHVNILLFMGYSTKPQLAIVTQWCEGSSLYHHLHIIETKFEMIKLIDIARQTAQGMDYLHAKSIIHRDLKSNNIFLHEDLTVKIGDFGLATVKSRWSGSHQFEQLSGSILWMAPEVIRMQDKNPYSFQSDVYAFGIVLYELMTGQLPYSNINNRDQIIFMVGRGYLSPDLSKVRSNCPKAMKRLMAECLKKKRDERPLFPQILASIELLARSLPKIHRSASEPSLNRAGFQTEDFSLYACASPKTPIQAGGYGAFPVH
T3 sequence (P36888 27-993): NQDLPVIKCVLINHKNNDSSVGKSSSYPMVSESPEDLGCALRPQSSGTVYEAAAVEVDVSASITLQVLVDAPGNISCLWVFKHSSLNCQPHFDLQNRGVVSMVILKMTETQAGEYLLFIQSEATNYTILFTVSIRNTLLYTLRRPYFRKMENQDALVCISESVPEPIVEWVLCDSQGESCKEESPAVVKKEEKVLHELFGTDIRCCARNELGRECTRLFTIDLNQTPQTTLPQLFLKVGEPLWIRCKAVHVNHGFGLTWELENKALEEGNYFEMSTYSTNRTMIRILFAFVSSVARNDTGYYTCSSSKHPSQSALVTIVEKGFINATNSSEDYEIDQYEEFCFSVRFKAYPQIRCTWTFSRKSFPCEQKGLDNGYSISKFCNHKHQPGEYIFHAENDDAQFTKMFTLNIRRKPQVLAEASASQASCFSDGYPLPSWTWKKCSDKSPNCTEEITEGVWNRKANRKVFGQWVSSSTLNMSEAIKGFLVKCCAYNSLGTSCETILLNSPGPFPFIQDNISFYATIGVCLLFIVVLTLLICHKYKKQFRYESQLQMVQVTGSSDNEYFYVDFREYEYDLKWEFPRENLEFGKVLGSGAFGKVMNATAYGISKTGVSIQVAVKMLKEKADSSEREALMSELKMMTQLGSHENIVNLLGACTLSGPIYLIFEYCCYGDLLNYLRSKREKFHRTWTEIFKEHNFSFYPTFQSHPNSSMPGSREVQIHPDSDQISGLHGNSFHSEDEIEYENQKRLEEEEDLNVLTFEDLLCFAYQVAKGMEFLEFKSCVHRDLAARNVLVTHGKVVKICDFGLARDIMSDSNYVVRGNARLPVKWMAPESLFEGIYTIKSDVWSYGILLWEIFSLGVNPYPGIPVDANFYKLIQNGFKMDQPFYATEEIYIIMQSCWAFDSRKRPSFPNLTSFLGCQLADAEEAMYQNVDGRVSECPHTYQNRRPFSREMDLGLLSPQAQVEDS
T5 sequence (O15264 whole entry): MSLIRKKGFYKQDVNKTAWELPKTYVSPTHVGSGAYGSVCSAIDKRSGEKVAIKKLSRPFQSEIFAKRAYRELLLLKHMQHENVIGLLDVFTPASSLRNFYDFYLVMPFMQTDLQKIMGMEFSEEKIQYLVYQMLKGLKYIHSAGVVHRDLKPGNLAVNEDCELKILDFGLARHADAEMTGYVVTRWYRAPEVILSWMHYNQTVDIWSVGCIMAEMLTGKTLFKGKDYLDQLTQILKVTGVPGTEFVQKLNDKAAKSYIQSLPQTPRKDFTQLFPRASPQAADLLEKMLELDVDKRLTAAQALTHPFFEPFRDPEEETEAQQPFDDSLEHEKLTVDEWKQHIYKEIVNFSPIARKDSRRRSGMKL

CCN1CCN(Cc2ccc(NC(=O)c3ccc(C)c(NC(=O)N(C)c4ncnc5[nH]ccc45)c3)cc2C(F)(F)F)CC1 [Example 4, N-[4-(4-Ethyl-piperazin-1-ylmethyl)-3-trifluoromethyl-phenyl]-4-methyl-3-[3-methyl-3-(7H-pyrrolo[2,3-d]pyrimidin-4-yl)-ureido]-benzamide]
inhibition at 10 µM (TrkB(h)): 99%
inhibition at 10 µM (CSK(h)): 100%
inhibition at 10 µM (Flt3(h)): 96%
inhibition at 10 µM (PDGFRα(h)): 93%
inhibition at 10 µM (SAPK4(h)): 82%
inhibition at 10 µM (Lck(h)): 100%
inhibition at 10 µM (p70S6K(h)): 94%
inhibition at 10 µM (Rsk1(h)): 95%
inhibition at 10 µM (Abl(T315L)): 98%
inhibition at 10 µM (PKA(h)): 92%
inhibition at 10 µM (SAPK2p(h)): 85%
inhibition at 10 µM (ROCK-II(h)): 78%
IC50 (B-RAF): 100 nM
IC50 [1]: < 5 nM
